According to PubChem BioAssay (NCI):
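Five concentrations, 48 hours, 96-well plates. GI50 marks 50% less growth. TGI: concentration producing complete growth inhibition.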

Assays:
Experiment in all cases: DTP human tumour cell line panel, 48 h
[1] = tested on: M14 melanoma
[2] = tested on: SW-620 colon
[3] = tested on: MDA-MB-231 breast
[4] = tested on: HCC-2998 colon
[5] = tested on: PC-3 prostate
[6] = tested on: HCT-15 colon
[7] = tested on: ACHN renal
[8] = tested on: SNB-75 CNS
[9] = tested on: A549 NSCLC
[10] = tested on: HOP-92 NSCLC
[11] = tested on: T-47D breast
[12] = tested on: SR leukemia
[13] = tested on: IGROV1 ovarian
[14] = tested on: COLO 205 colon
[15] = tested on: HS 578T breast
[16] = tested on: EKVX NSCLC
[17] = tested on: SK-MEL-5 melanoma
[18] = tested on: BT-549 breast
[19] = tested on: MCF7 breast
[20] = tested on: K-562 leukemia
[21] = tested on: MDA-MB-468 breast
[22] = tested on: OVCAR-4 ovarian
[23] = tested on: OVCAR-3 ovarian
[24] = tested on: DU-145 prostate
[25] = tested on: UACC-257 melanoma
[26] = tested on: NCI-H226 lung
[27] = tested on: SF-539 CNS
[28] = tested on: SF-295 CNS
[29] = tested on: 786-0 renal
[30] = tested on: CAKI-1 renal
[31] = tested on: MDA-MB-435
[32] = tested on: OVCAR-5 ovarian
[33] = tested on: SK-MEL-28 melanoma
[34] = tested on: OVCAR-8 ovarian
[35] = tested on: SK-OV-3 ovarian
[36] = tested on: NCI-H522 lung
[37] = tested on: UO-31 renal
[38] = tested on: TK-10 renal
[39] = tested on: LOX IMVI melanoma
[40] = tested on: RXF 393 renal
[41] = tested on: SK-MEL-2 melanoma
[42] = tested on: NCI-H460 lung
[43] = tested on: KM12 colon
[44] = tested on: SN12C renal
[45] = tested on: MALME-3M melanoma
[46] = tested on: UACC-62 melanoma
[47] = tested on: HL-60(TB) leukemia
[48] = tested on: NCI-H23 lung
[49] = tested on: NCI/ADR-RES ovarian
[50] = tested on: HCT-116 colon
[51] = tested on: MOLT-4 leukemia
[52] = tested on: CCRF-CEM leukemia
[53] = tested on: U251 CNS
[54] = tested on: HOP-62 NSCLC
[55] = tested on: RPMI-8226 leukemia
[56] = tested on: HT29 colon
[57] = tested on: SNB-19 CNS
[58] = tested on: A498 renal
[59] = tested on: SF-268 CNS

For S=C(Nc1ccc(OCc2nc3ccc(Cl)cc3[nH]2)cc1)NC1CCCCC1, the GI50 [1] was 6.73 µM, the TGI [1] was 22.5 µM and the GI50 [2] was 9.55 µM. For the same compound, the TGI [2] was 24.2 µM, the GI50 [3] was 7.42 µM and the TGI [3] was 20.4 µM. The GI50 [4] was 3.12 µM, the TGI [4] was 12.5 µM and the GI50 [5] was 4.29 µM. For the same compound, the TGI [5] was 18.7 µM, the GI50 [6] was 5.5 µM and the TGI [6] was 18.7 µM. For the same compound, the GI50 [7] was 4.99 µM, the TGI [7] was 17.4 µM and the GI50 [8] was 1.79 µM. It also gave a TGI [8] of 15.2 µM, a GI50 [9] of 6.51 µM and a TGI [9] of 21.6 µM. For the same compound, the GI50 [10] was 3.27 µM, the TGI [10] was 14.7 µM and the GI50 [11] was 7.75 µM. For the same compound, the TGI [11] was 26.2 µM, the GI50 [12] was 2.61 µM and the TGI [12] was 8.45 µM. For the same compound, the GI50 [13] was 6.95 µM, the TGI [13] was 20.2 µM and the GI50 [14] was 10.2 µM. For the same compound, the TGI [14] was 27.6 µM, the GI50 [15] was 7.33 µM and the TGI [15] was 28.7 µM. For the same compound, the GI50 [16] was 7.23 µM, the TGI [16] was 20.9 µM and the GI50 [17] was 5.79 µM. The TGI [17] was 19.5 µM, the GI50 [18] was 15 µM and the TGI [18] was 29.1 µM. The GI50 [19] was 2.87 µM, the TGI [19] was 12.4 µM and the GI50 [20] was 3.57 µM. The TGI [20] was 15.1 µM, the GI50 [21] was 2.97 µM and the TGI [21] was 13.2 µM. It also gave a GI50 [22] of 6.82 µM, a TGI [22] of 25.1 µM and a GI50 [23] of 4.44 µM. The TGI [23] was 18.8 µM, the GI50 [24] was 11.3 µM and the TGI [24] was 27.7 µM. It also gave a GI50 [25] of 7.53 µM, a TGI [25] of 21.6 µM and a GI50 [26] of 10.8 µM. It also gave a TGI [26] of 29.1 µM, a GI50 [27] of 12.1 µM and a TGI [27] of 24.5 µM. It also gave a GI50 [28] of 9.72 µM, a TGI [28] of 22.9 µM and a GI50 [29] of 7.4 µM. The TGI [29] was 21.4 µM, the GI50 [30] was 3.47 µM and the TGI [30] was 15.5 µM. It also gave a GI50 [31] of 6.97 µM, a TGI [31] of 22 µM and a GI50 [32] of 10.8 µM. For the same compound, the TGI [32] was 22.6 µM, the GI50 [33] was 12.1 µM and the TGI [33] was 24.5 µM. For the same compound, the GI50 [34] was 13.1 µM, the TGI [34] was 28.5 µM and the GI50 [35] was 13.4 µM. The TGI [35] was 27 µM, the GI50 [36] was 2.9 µM and the TGI [36] was 12.6 µM. The GI50 [37] was 3.88 µM, the TGI [37] was 16.6 µM and the GI50 [38] was 12.4 µM. It also gave a TGI [38] of 24.9 µM, a GI50 [39] of 2.83 µM and a TGI [39] of 11.5 µM. For the same compound, the GI50 [40] was 6.21 µM, the TGI [40] was 20.5 µM and the GI50 [41] was 11.4 µM. It also gave a TGI [41] of 24.5 µM, a GI50 [42] of 3.96 µM and a TGI [42] of 14.2 µM. For the same compound, the GI50 [43] was 4.8 µM, the TGI [43] was 17.5 µM and the GI50 [44] was 8.32 µM. For the same compound, the TGI [44] was 21.2 µM, the GI50 [45] was 11.6 µM and the TGI [45] was 23.8 µM. It also gave a GI50 [46] of 6.68 µM, a TGI [46] of 20.4 µM and a GI50 [47] of 2.63 µM. For the same compound, the TGI [47] was 13.2 µM, the GI50 [48] was 8.56 µM and the TGI [48] was 21.4 µM. For the same compound, the GI50 [49] was 9.57 µM, the TGI [49] was 25.3 µM and the GI50 [50] was 5.99 µM. It also gave a TGI [50] of 21.5 µM, a GI50 [51] of 4.01 µM and a TGI [51] of 13.9 µM. The GI50 [52] was 3.59 µM, the TGI [52] was 16.6 µM and the GI50 [53] was 11.7 µM. For the same compound, the TGI [53] was 24.8 µM, the GI50 [54] was 12.3 µM and the TGI [54] was 26.4 µM. The GI50 [55] was 7.09 µM, the TGI [55] was 41.8 µM and the GI50 [56] was 4.44 µM. It also gave a TGI [56] of 16 µM, a GI50 [57] of 10.7 µM and a TGI [57] of 22.6 µM. For the same compound, the GI50 [58] was 11.2 µM, the TGI [58] was 23.8 µM and the GI50 [59] was 8.19 µM. The TGI [59] was 24.5 µM.
